This experiment has as its system KRAS utr-2 (RNA, G4) GGAAGGCGGCGG
Kind of experiment: UV-vis titration (Soret band). The following applies: 100 mM KCl; 50 mM Tris-HCl pH 7.4 (from methods); 6 μM C14 titrated with G4-RNA; simple binding equation.

Structures are written as SMILES.

Turning to `CCCCCCCCCCCCCC[n+]1ccc(-c2c3nc(c(-c4cc[n+](C)cc4)c4ccc([nH]4)c(-c4cc[n+](C)cc4)c4nc(c(-c5cc[n+](C)cc5)c5ccc2[nH]5)C=C4)C=C3)cc1`, the KD is given as ~ 5 × 10^-7 M.

The values are drawn from paper PMC4021972 (2014).
